Reference: patent US11998536B2, “Decreasing expression level of proteasome subunit genes by treating a human subject with a nitroxide” (priority 2018, dated 2024)

Key:
[1] = system: Psma7; experiment: Gene expression in Tempol-fed mice, chip-based microarray; format: in vivo; settings: white adipose tissue per table title (cardiac tissue per text)
Method: (§1) To assess the effects of Tempol on gene expression, Tempol was administered to experimental mice at a dose of 5 mg/g of food from 14 months to 31 months after birth. Mice receiving the same food without the addition of Tempol were used as a negative control. At the age of 31 months, the experimental animals were sacrificed and the hearts were surgically removed. The expression of a broad spectrum of genes in the cardiac tissue was assessed using chip-based microarray technology. Such chips are well known in the art and are widely used to assess gene expression.

[2] = system: Psmc6; experiment: as above; format: in vivo; settings: white adipose tissue per table title (cardiac tissue per text)
Method: as §1

[3] = system: Psmd9; experiment: as above; format: in vivo; settings: white adipose tissue per table title (cardiac tissue per text)
Method: as §1

[4] = system: Psmd3; experiment: as above; format: in vivo; settings: white adipose tissue per table title (cardiac tissue per text)
Method: as §1

[5] = system: Psmd14; experiment: as above; format: in vivo; settings: white adipose tissue per table title (cardiac tissue per text)
Method: as §1

[6] = system: Psmd4; experiment: as above; format: in vivo; settings: white adipose tissue per table title (cardiac tissue per text)
Method: as §1

[7] = system: Psmb4; experiment: as above; format: in vivo; settings: white adipose tissue per table title (cardiac tissue per text)
Method: as §1

[8] = system: Psmd12; experiment: as above; format: in vivo; settings: white adipose tissue per table title (cardiac tissue per text)
Method: as §1

[9] = system: Psmd13; experiment: as above; format: in vivo; settings: white adipose tissue per table title (cardiac tissue per text)
Method: as §1

[10] = system: Psma2; experiment: as above; format: in vivo; settings: white adipose tissue per table title (cardiac tissue per text)
Method: as §1

[11] = system: Psmc3; experiment: as above; format: in vivo; settings: white adipose tissue per table title (cardiac tissue per text)
Method: as §1

[12] = system: Psma6; experiment: as above; format: in vivo; settings: white adipose tissue per table title (cardiac tissue per text)
Method: as §1

[13] = system: Psmc4; experiment: as above; format: in vivo; settings: white adipose tissue per table title (cardiac tissue per text)
Method: as §1

[14] = system: Psme4; experiment: as above; format: in vivo; settings: white adipose tissue per table title (cardiac tissue per text)
Method: as §1

[15] = system: Psmc2; experiment: as above; format: in vivo; settings: white adipose tissue per table title (cardiac tissue per text)
Method: as §1

[16] = system: Psmb5; experiment: as above; format: in vivo; settings: white adipose tissue per table title (cardiac tissue per text)
Method: as §1

[17] = system: genes associated with proteasome activity; experiment: Gene expression in Tempol-fed mice, chip-based microarray (summary in text); format: in vivo; settings: Tempol 5 mg/g of food from 14 to 31 months; cardiac tissue; vs mice on same food without Tempol
Method: as §1

[18] = system: β5/β5i sites (chymotrypsin-like sites) of the proteasome; settings: cited from earlier work
[19] = target: β1 (caspase-like) sites of the proteasome (Homo sapiens, UniProt P28072); settings: relative to β5/β5i sites; cited from earlier work
[20] = target: β2 sites of the proteasome (Homo sapiens, UniProt Q99436); settings: under normal conditions; cited from earlier work
[21] = Tempol 5 mg/g of food from 14 to 31 months, microarray
[22] = Tempol-treated vs control mice, 5 mg/g of food from 14 to 31 months

In the case of `CC1(C)CC(O)CC(C)(C)N1[O]` [Tempol, 4-hydroxy-2,2,6,6-tetramethylpiperidine-1-oxyl], the “Psma7 expression, Tempol-treated mice” value [1, 21] is reported as 1513, the Psma7 fold change [1, 22] is reported as −1.23 and the “Psmc6 expression, Tempol-treated mice” value [2, 21] is reported as 1449. For the same molecule, the Psmc6 fold change [2, 22] was −1.16, the “Psmd9 expression, Tempol-treated mice” value [3, 21] was 310 and the Psmd9 fold change [3, 22] was −1.18. The “Psmd3 expression, Tempol-treated mice” value [4, 21] was 1017, the Psmd3 fold change [4, 22] was −1.12 and the “Psmd14 expression, Tempol-treated mice” value [5, 21] was 2745. The Psmd14 fold change [5, 22] was −1.20, the “Psmd4 expression, Tempol-treated mice” value [6, 21] was 2610 and the Psmd4 fold change [6, 22] was −1.20. For the same molecule, the “Psmb4 expression, Tempol-treated mice” value [7, 21] was 3614, the Psmb4 fold change [7, 22] was −1.15 and the “Psmd12 expression, Tempol-treated mice” value [8, 21] was 1098. The Psmd12 fold change [8, 22] was −1.20, the “Psmd13 expression, Tempol-treated mice” value [9, 21] was 1047 and the Psmd13 fold change [9, 22] was −1.23. The “Psma2 expression, Tempol-treated mice” value [10, 21] was 3123, the Psma2 fold change [10, 22] was −1.20 and the “Psmc3 expression, Tempol-treated mice” value [11, 21] was 1810. For the same molecule, the Psmc3 fold change [11, 22] was −1.23, the “Psma6 expression, Tempol-treated mice” value [12, 21] was 3467 and the Psma6 fold change [12, 22] was −1.09. The “Psmc4 expression, Tempol-treated mice” value [13, 21] was 1101, the Psmc4 fold change [13, 22] was −1.52 and the “Psme4 expression, Tempol-treated mice” value [14, 21] was 1086. For the same molecule, the Psme4 fold change [14, 22] was −1.16, the “Psmc2 expression, Tempol-treated mice” value [15, 21] was 2176 and the Psmc2 fold change [15, 22] was −1.23. For the same molecule, the “Psmb5 expression, Tempol-treated mice” value [16, 21] was 1754, the Psmb5 fold change [16, 22] was −1.15 and the “Change in expression of the 16 listed proteasome genes” value [17] was “statistically significant decrease in expression”.
In the case of `CC(C)C[C@H](NC(=O)[C@H](Cc1ccccc1)NC(=O)c1cnccn1)B(O)O` [bortezomib], the “Inhibition of β5/β5i sites” value [18] is given as “high potency”, the “Affinity for β1 sites, lower than for β5/β5i sites” value [19] is given as “approximately 10 fold” and the “Targeting of β2 sites” value [20] is given as “not appreciably targeted”.
